# Laboratory results reported in patent US11337950B2, “Biologically active cannabidiol analogs” (University of Mississippi, priority 2016, dated 2022).
# “And” between values parts separate entries of the source, which are not always exact repeats. Equal entries are not always repeated.
# Columns and labels:
# [1] = Plasma and organ concentrations of CBD and CBD-Mono-VHS after IP administration (Example 22); type: in vivo; conditions: mice, 70 Minutes; for CBD-Mono-Val-Mono-HS Plasma Concentration, AVG. / Total CBD-Mono-Val-Mono-HS, Brain, AVG. / Total CBD-Mono-Val-Mono-HS, Kidney, AVG. / Total CBD-Mono-Val-Mono-HS, Liver, AVG. / Total CBD-Mono-Val-Mono-HS, Spleen, AVG. / Total CBD-Mono-Val-Mono-HS, Total, AVG. / CBD-Mono-Val-Mono-HS Plasma Concentration / Total CBD-Mono-Val-Mono-HS, Brain / Total CBD-Mono-Val-Mono-HS, Kidney / Total CBD-Mono-Val-Mono-HS, Liver / Total CBD-Mono-Val-Mono-HS, Spleen / Total CBD-Mono-Val-Mono-HS, Total: IP; for CBD-Mono-Val-Mono-HS Plasma Concentration / Total CBD-Mono-Val-Mono-HS, Brain / Total CBD-Mono-Val-Mono-HS, Kidney / Total CBD-Mono-Val-Mono-HS, Liver / Total CBD-Mono-Val-Mono-HS, Spleen / Total CBD-Mono-Val-Mono-HS, Total: listed as CBD-Mono-Val-Mono-HS
# Description: CBD-Mono-VHS was administered intraperitoneally to mice at 2 doses (30 μg and 60 μg equivalent of CBD/mouse). Seventy minutes after dosing the animals (3 mice in each dose group), all animals were sacrificed. Blood, as well as organs (liver, spleen, kidney, and brain), were harvested for LC-MS/MS analysis of their content of both CBD and CBD-Mono-VHS.
# Also shown is the concentration of CBD-Mono-VHS in the plasma 70 minutes after dosing.
# [2] = Solubility of CBD and its analogs in Tocrisolve emulsion; type: physicochemical
# Description: Formulations: 0.5% w/v CBD equivalent in Tocrisolve emulsion.
# Tocrisolve composition: […] emulsion composed of a 1:4 ratio of soya oil/water that is emulsified with the block co-polymer Pluronic F68. Manufacturing process for the Tocrisolve emulsion: • Add accurately weighed amount of drug a glass vial. • Add required volume of Torcisolve blank emulsion to each vial • Vortex each vial for 5 minutes. • Sonicate each vial for 10 minutes. • Centrifuge each vial for 5 minutes at 9000 rpm at 25° C. • Collect the supernatant and analyze for CBD, CBD-Val Mono and CBD-Val-HS mono as applicable.
# [3] = IP CBD-Mono-VHS, Low Dose (30 μg CBD/mouse), AVG.
# [4] = IP CBD-Mono-VHS, Low Dose (30 μg CBD/mouse), individual animals
# [5] = High Dose (60 μg CBD/mouse), AVG.
# [6] = High Dose (60 μg CBD/mouse), individual animals
# [7] = Low Dose (30 μg CBD/mouse), AVG.
# [8] = Low Dose (30 μg CBD/mouse), individual animals
compound,measurement,setting,value
"C=C(C)C1CCC(C)=CC1c1c(O)cc(CCCCC)cc1OC(=O)[C@@H](NC(=O)CCC(=O)O)C(C)C (some centres unmarked) [CBD-Mono-VHS, CBD-Mono-Valinate-Mono-Hemisuccinate]","CBD Plasma Concentration, AVG.",[1]; [3],0.00 ng/mL
same,"Total CBD, Brain, AVG.",[1]; [3],0.00 ng
same,"Total CBD, Kidney, AVG.",[1]; [3],2.343 ng
same,"Total CBD, Liver, AVG.",[1]; [3],47.62 ng
same,"Total CBD, Spleen, AVG.",[1]; [3],9.46 ng
same,"Total CBD, Total, AVG.","[1]; IP CBD-Mono-VHS, Low Dose (30 μg CBD/mouse), AVG., sum of the columns",59.42 ng
same,CBD Plasma Concentration,[1]; [4],0.00 ng/mL
same,"Total CBD, Brain",[1]; [4],0.00 ng
same,"Total CBD, Kidney",[1]; [4],7.03 ng and 0.00 ng (2×)
same,"Total CBD, Liver",[1]; [4],41.82 ng and 19.61 ng and 81.42 ng
same,"Total CBD, Spleen",[1]; [4],10.04 ng and 18.35 ng and 0.00 ng
same,"Total CBD, Total","[1]; IP CBD-Mono-VHS, Low Dose (30 μg CBD/mouse), individual animals, sum of the columns",58.89 ng and 37.96 ng and 81.42 ng
same,"CBD-Mono-Val-Mono-HS Plasma Concentration, AVG.",[1]; [5],210.45 ng/mL
same,"Total CBD-Mono-Val-Mono-HS, Brain, AVG.",[1]; [5],63.51 ng
same,"Total CBD-Mono-Val-Mono-HS, Kidney, AVG.",[1]; [5],1193.95 ng
same,"Total CBD-Mono-Val-Mono-HS, Liver, AVG.",[1]; [5],7558.89 ng
same,"Total CBD-Mono-Val-Mono-HS, Spleen, AVG.",[1]; [5],771.76 ng
same,"Total CBD-Mono-Val-Mono-HS, Total, AVG.","[1]; High Dose (60 μg CBD/mouse), AVG., sum of the columns",9798.56 ng
same,CBD-Mono-Val-Mono-HS Plasma Concentration,[1]; [6],137.82 ng/mL and 100.53 ng/mL and 393.00 ng/mL
same,"Total CBD-Mono-Val-Mono-HS, Brain",[1]; [6],46.59 ng and 42.45 ng and 101.50 ng
same,"Total CBD-Mono-Val-Mono-HS, Kidney",[1]; [6],780.57 ng and 248.34 ng and 2552.93 ng
same,"Total CBD-Mono-Val-Mono-HS, Liver",[1]; [6],8380.90 ng and 2882.40 ng and 11413.38 ng
same,"Total CBD-Mono-Val-Mono-HS, Spleen",[1]; [6],711.31 ng and 477.40 ng and 1126.58 ng
same,"Total CBD-Mono-Val-Mono-HS, Total","[1]; High Dose (60 μg CBD/mouse), individual animals, sum of the columns",10057.18 ng and 3751.113 ng and 15587.4 ng
same,"CBD-Mono-Val-Mono-HS Plasma Concentration, AVG.",[1]; [7],29.10 ng/mL
same,"Total CBD-Mono-Val-Mono-HS, Brain, AVG.",[1]; [7],9.18 ng
same,"Total CBD-Mono-Val-Mono-HS, Kidney, AVG.",[1]; [7],101.58 ng
same,"Total CBD-Mono-Val-Mono-HS, Liver, AVG.",[1]; [7],1170.01 ng
same,"Total CBD-Mono-Val-Mono-HS, Spleen, AVG.",[1]; [7],179.54 ng
same,"Total CBD-Mono-Val-Mono-HS, Total, AVG.","[1]; Low Dose (30 μg CBD/mouse), AVG., sum of the columns",1489.42 ng
same,CBD-Mono-Val-Mono-HS Plasma Concentration,[1]; [8],32.08 ng/mL and 32.24 ng/mL and 22.97 ng/mL
same,"Total CBD-Mono-Val-Mono-HS, Brain",[1]; [8],13.48 ng and 8.26 ng and 5.81 ng
same,"Total CBD-Mono-Val-Mono-HS, Kidney",[1]; [8],88.05 ng and 84.14 ng and 132.55 ng
same,"Total CBD-Mono-Val-Mono-HS, Liver",[1]; [8],1431.98 ng and 534.11 ng and 1543.96 ng
same,"Total CBD-Mono-Val-Mono-HS, Spleen",[1]; [8],105.24 ng and 283.02 ng and 150.36 ng
same,"Total CBD-Mono-Val-Mono-HS, Total","[1]; Low Dose (30 μg CBD/mouse), individual animals, sum of the columns",1670.831 ng and 941.765 ng and 1855.656 ng
same,Maximum solubility achieved in Tocrisolve,[2]; as the substance itself,1.18 % w/v
same,Maximum solubility achieved in Tocrisolve (In terms of CBD),[2]; in terms of CBD,(0.61) % w/v
